The target of assay [1] is recombinant SARS-CoV-2 Main protease (Mpro) (Severe acute respiratory syndrome coronavirus 2 (2019-nCoV) (SARS-CoV-2), UniProt P0DTD1). Nature of the assay: Cov Mpro Biochemical IC50 Assay. To be noted: fluorogenic peptide substrate 40 μM.
Assay [2] relates to SARS-CoV-2-NLuc. Nature of the assay: microbe, parasite or virus in culture. Format: cell-based, SARS Coronavirus 2.
[3] abbreviates: recombinant SARS-CoV-2 Mpro 7.5 nM, read-out: MPro IC50.
Where [4] appears, read: Severe acute respiratory syndrome coronavirus, 48 h, read-out: MPro EC50.
Where [5] appears, read: Severe acute respiratory syndrome coronavirus, 48 h; read-out: MPro EC50.

Like-named read-outs stand apart in the source and are kept apart here. Where only a bound is given, the exact number is not on record here.

As usually defined, the IC50 is the concentration that gives 50% inhibition. For orientation: EC50 means the concentration needed to bring the measured effect to its halfway point.

As for `COc1cc(-c2cc3c(s2)c(=O)n(-c2cncc4nnn(C(C)C)c24)c(=O)n3CCC#N)c(Cl)cc1F` [Example 991], the IC50 in assay [1] (setting [3]) was 16 nM. Also, in assay [2] (setting [4]), the concentration for a half-maximal effect (EC50) came out at 49.8 nM.
Consider `COc1cc(-c2cc3c(s2)c(=O)n(-c2cncc4nc(C5CC5)n(C)c24)c(=O)n3CCC#N)c(Cl)cc1F` [Example 992], for which the 50% inhibitory concentration (IC50) in assay [1] (setting [3]) turned out to be 18.3 nM. Also, in assay [2] (setting [4]), the EC50 came to 112 nM.
As to `COc1cc(-c2cc3c(s2)c(=O)n(-c2cncc4ccccc24)c(=O)n3C)c(Cl)cc1F` [Example 993, 6-(2-chloro-4-fluoro-5-methoxy-phenyl)-3-(4-isoquinolyl)-1-methyl-thieno[3,2-d]pyrimidine-2,4-dione], the half-inhibitory concentration (IC50) in assay [1] (setting [3]) was 5.63 nM. In addition, the concentration giving a half-maximal response (EC50) in assay [2] (setting [5]) was 4.38 nM.
As to `COc1cc(-c2cc3c(s2)c(=O)n(-c2cncc4cccnc24)c(=O)n3C)c(Cl)cc1F` [Example 994], the IC50 in assay [1] (setting [3]) came to 8.46 nM. In addition, the concentration for a half-maximal effect (EC50) in assay [2] (setting [4]) turned out to be 8.41 nM.
In the case of `COc1cc(-c2cc3c(s2)c(=O)n(-c2cncc4cnn(C5CC5)c24)c(=O)n3CCC#N)c(Cl)cc1F` [Example 998], in assay [1] (setting [3]), the IC50 came to 8.93 nM. The EC50 in assay [2] (setting [4]) was 6.42 nM.
On to `COc1cc(-c2cc3c(s2)c(=O)n(-c2cncc4cnn(C)c24)c(=O)n3CCC#N)c(C#N)cc1F` [Example 999, 2-(1-(2-cyanoethyl)-3-(1-methyl-1H-pyrazolo[4,3-c]pyridin-7-yl)-2,4-dioxo-1,2,3,4-tetrahydrothieno[3,2-d]pyrimidin-6-yl)-5-fluoro-4-methoxybenzonitrile], for which the IC50 in assay [1] (setting [3]) was 7.15 nM. In addition, the half-maximal effective concentration (EC50) in assay [2] (setting [5]) came out at 15.7 nM.
Consider `COc1cc(-c2cc3c(s2)c(=O)n(-c2cncc4nccn24)c(=O)n3CCC#N)c(Cl)cc1F` [Example 1000], for which, in assay [1] (setting [3]), the half-inhibitory concentration (IC50) was 10.6 nM. Besides, the 50% effective concentration (EC50) in assay [2] (setting [4]) is 20.1 nM.
With `COc1cc(-c2cc3c(s2)c(=O)n(-c2cncc4ccccc24)c(=O)n3CCC#N)c(C#N)cc1F` [Example 1001, 2-(1-(2-cyanoethyl)-3-(isoquinolin-4-yl)-2,4-dioxo-1,2,3,4-tetrahydrothieno[3,2-d]pyrimidin-6-yl)-5-fluoro-4-methoxybenzonitrile], in assay [1] (setting [3]), the IC50 is 5.04 nM. Also, in assay [2] (setting [4]), the EC50 was found to be 3.11 nM.
Take `COc1cc(-c2cc3c(s2)c(=O)n(-c2cncc4cnn(C)c24)c(=O)n3CCc2nnn[nH]2)c(Cl)cc1F` [Example 1002, 6-(2-chloro-4-fluoro-5-methoxy-phenyl)-3-(1-methylpyrazolo[4,3-c]pyridin-7-yl)-1-[2-(1H-tetrazol-5-yl)ethyl]thieno[3,2-d]pyrimidine-2,4-dione]: the half-inhibitory concentration (IC50) in assay [1] (setting [3]) stood at 33.8 nM. Further, the EC50 in assay [2] (read-out: MPro EC50) worked out at 110 nM.
On to `COc1cc(-c2cc3c(s2)c(=O)n(-c2cncc4cnn(C)c24)c(=O)n3C2CC2C#N)c(Cl)cc1F` (stereo not shown) [Example 1005, 2-(6-(2-chloro-4-fluoro-5-methoxyphenyl)-3-(1-methyl-1H-pyrazolo[4,3-c]pyridin-7-yl)-2,4-dioxo-3,4-dihydrothieno[3,2-d]pyrimidin-1(2H)-yl)cyclopropane-1-carbonitrile], for which the IC50 in assay [1] (setting [3]) came to 38.5 nM. The EC50 in assay [2] (read-out: MPro EC50) was 52.9 nM.
For `COc1cc(-c2cc3[nH]c(=O)n(-c4cncc5cc(C(=O)N(C)C)sc45)c(=O)c3s2)c(Cl)cc1F` [Example 1010, 7-[6-(2-chloro-4-fluoro-5-methoxy-phenyl)-2,4-dioxo-1H-thieno[3,2-d]pyrimidin-3-yl]-N,N-dimethyl-thieno[3,2-c]pyridine-2-carboxamide], in assay [1] (setting [3]), the concentration for half-maximal inhibition (IC50) was 3.29 nM. For the same compound, in assay [2] (setting [4]), the half-maximal effective concentration (EC50) is 69.2 nM.
With `COc1cc(-c2cc3[nH]c(=O)n(-c4cncc5cc(C#N)sc45)c(=O)c3s2)c(Cl)cc1F` [Example 1011, 7-[6-(2-chloro-4-fluoro-5-methoxy-phenyl)-2,4-dioxo-1H-thieno[3,2-d]pyrimidin-3-yl]thieno[3,2-c]pyridine-2-carbonitrile], in assay [1] (setting [3]), the IC50 came out at 14.5 nM. For the same compound, in assay [2] (setting [4]), the EC50 was determined as 81.2 nM.
As for `Cn1ncc2cncc(-n3c(=O)[nH]c4cc(-c5c(F)ccc6[nH]ncc56)sc4c3=O)c21` [Example 1014, 6-(5-fluoro-1H-indazol-4-yl)-3-(1-methylpyrazolo[4,3-c]pyridin-7-yl)-1H-thieno[3,2-d]pyrimidine-2,4-dione], the IC50 in assay [1] (setting [3]) is above 1000 nM. Further, the EC50 in assay [2] (setting [5]) was above 1000 nM.
In the case of `Cc1ccc2nn(C)cc2c1-c1cc2[nH]c(=O)n(-c3cncc4cnn(C)c34)c(=O)c2s1` [Example 1015], in assay [1] (setting [3]), the 50% inhibitory concentration (IC50) amounted to 50.9 nM. Further, in assay [2] (setting [4]), the concentration for a half-maximal effect (EC50) turned out to be 597 nM.
As to `COc1cc(-c2sc3c(=O)n(-c4cncc5ccccc45)c(=O)[nH]c3c2C)c(Cl)cc1F` [Example 1016], the IC50 in assay [1] (setting [3]) stood at 357 nM. For the same compound, in assay [2] (setting [5]), the EC50 is above 1000 nM.
The matching figures for `COc1cc(-c2cc3c(s2)c(=O)n(-c2cncc4cnn(C)c24)c(=O)n3CCC#N)c(Cl)cc1Cl` [Example 1017, 3-[6-(2,4-dichloro-5-methoxy-phenyl)-3-(1-methylpyrazolo[4,3-c]pyridin-7-yl)-2,4-dioxo-thieno[3,2-d]pyrimidin-1-yl]propanenitrile]: 5.92 nM and 5.25 nM.
Consider `COc1cc(-c2cc3c(s2)c(=O)n(-c2cncc4cnn(C)c24)c(=O)n3CCC#N)c(C)cc1Cl` [Example 1018], for which the IC50 in assay [1] (setting [3]) turned out to be 15 nM. Further, the half-maximal effective concentration (EC50) in assay [2] (setting [4]) worked out at 19.2 nM.
Take `COc1cnc(Cl)c(-c2cc3c(s2)c(=O)n(-c2cncc4cnn(C)c24)c(=O)n3CCC#N)c1` [Example 1019, 3-(6-(2-chloro-5-methoxypyridin-3-yl)-3-(1-methyl-1H-pyrazolo[4,3-c]pyridin-7-yl)-2,4-dioxo-3,4-dihydrothieno[3,2-d]pyrimidin-1(2H)-yl)propanenitrile]: the half-maximal inhibitory concentration (IC50) in assay [1] (setting [3]) came out at 8.48 nM. In addition, the concentration for a half-maximal effect (EC50) in assay [2] (setting [4]) stood at 16.3 nM.
`Cc1cnc(Cl)c(-c2cc3c(s2)c(=O)n(-c2cncc4cnn(C)c24)c(=O)n3CCC#N)c1` [Example 1020]: the 50% inhibitory concentration (IC50) in assay [1] (setting [3]) amounted to 107 nM. Also, the EC50 in assay [2] (setting [4]) was determined as 398 nM.
On to `Cn1ncc2cncc(-n3c(=O)c4sc(C5C(Cl)=CC(Cl)=C6OCCC65)cc4n(CCC#N)c3=O)c21` (stereo not shown) [Example 1021], for which the IC50 in assay [1] (setting [3]) was 15.5 nM. The 50% effective concentration (EC50) in assay [2] (setting [4]) came to 37.2 nM.
In the case of `COc1cc(-c2cc3c(s2)c(=O)n(-c2cncc(F)c2C)c(=O)n3CCC#N)c(Cl)cc1F` [Example 1022, 3-[6-(2-chloro-4-fluoro-5-methoxy-phenyl)-3-(5-fluoro-4-methyl-3-pyridyl)-2,4-dioxo-thieno[3,2-d]pyrimidin-1-yl]propanenitrile], the concentration for half-maximal inhibition (IC50) in assay [1] (setting [3]) is 7.3 nM. Further, in assay [2] (setting [5]), the concentration for a half-maximal effect (EC50) is 9.53 nM.
The matching figures for `Cc1c(F)cncc1-n1c(=O)c2sc(-c3ccccc3Cl)cc2n(CCC#N)c1=O` [Example 1023]: 19.3 nM and 59.3 nM.
On to `Cc1cc(Cl)c(-c2cc3c(s2)c(=O)n(-c2cncc4cnn(C)c24)c(=O)n3CCC#N)cc1Cl` [Example 1024], for which, in assay [1] (setting [3]), the IC50 was determined as 9.7 nM. In assay [2] (setting [4]), the EC50 turned out to be 35.4 nM.
As to `Cn1ncc2cncc(-n3c(=O)c4sc(-c5ccc(C#N)cc5Cl)cc4n(CCC#N)c3=O)c21` [Example 1025], in assay [1] (setting [3]), the IC50 was found to be 86.4 nM. For the same compound, in assay [2] (setting [4]), the concentration for a half-maximal effect (EC50) is 244 nM.
Take `COc1cc(-c2cc3c(s2)c(=O)n(-c2cncc(C#CC(C)(C)O)c2)c(=O)n3CCC#N)c(Cl)cc1F` [Example 1038, 3-(6-(2-chloro-4-fluoro-5-methoxyphenyl)-3-(5-(3-hydroxy-3-methylbut-1-yn-1-yl)pyridin-3-yl)-2,4-dioxo-3,4-dihydrothieno[3,2-d]pyrimidin-1(2H)-yl)propanenitrile]: the half-maximal inhibitory concentration (IC50) in assay [1] (setting [3]) was found to be 1.28 nM. Also, the EC50 in assay [2] (setting [5]) came to 5.69 nM.
For `COc1cc(-c2cc3c(s2)c(=O)n(-c2cncc(C#CC(C)(C)S(C)(=O)=O)c2)c(=O)n3CCC#N)c(Cl)cc1F` [Example 1039], the 50% inhibitory concentration (IC50) in assay [1] (setting [3]) stood at 11.7 nM. Also, the 50% effective concentration (EC50) in assay [2] (setting [4]) is 57.1 nM.
Consider `COc1cc(-c2cc3c(s2)c(=O)n(-c2cncc(C#N)c2)c(=O)n3CCC#N)c(Cl)cc1F` [Example 1040, 5-(6-(2-chloro-4-fluoro-5-methoxyphenyl)-1-(2-cyanoethyl)-2,4-dioxo-1,4-dihydrothieno[3,2-d]pyrimidin-3(2H)-yl)nicotinonitrile], for which the half-inhibitory concentration (IC50) in assay [1] (setting [3]) is 4.64 nM. The EC50 in assay [2] (setting [5]) was 9.66 nM.
Turning to `COc1cc(-c2cc3[nH]c(=O)n(-c4cncc5[nH]nc(C(F)(F)F)c45)c(=O)c3s2)c(Cl)cc1F` [Example 1045, 6-(2-chloro-4-fluoro-5-methoxyphenyl)-3-(3-(trifluoromethyl)-1H-pyrazolo[3,4-c]pyridin-4-yl)thieno[3,2-d]pyrimidine-2,4(1H,3H)-dione], the 50% inhibitory concentration (IC50) in assay [1] (setting [3]) stood at 141 nM. Besides, in assay [2] (setting [4]), the concentration giving a half-maximal response (EC50) was above 1000 nM.
Take `COc1cc(-c2cc3c(s2)c(=O)n(-c2cncc4c2c(C(F)(F)F)nn4COCC[Si](C)(C)C)c(=O)n3CCC#N)c(Cl)cc1F` [Example 1046, 3-(6-(2-chloro-4-fluoro-5-methoxyphenyl)-2,4-dioxo-3-(3-(trifluoromethyl)-1-((2-(trimethylsilyl)ethoxy)methyl)-1H-pyrazolo[3,4-c]pyridin-4-yl)-3,4-dihydrothieno[3,2-d]pyrimidin-1(2H)-yl)propanenitrile]: the IC50 in assay [1] (MPro IC50, recombinant SARS-CoV-2 Mpro 7.5 nM) is 35.8 nM. Also, the EC50 in assay [2] (setting [5]) is 129 nM.
With `COc1cc(-c2cc3c(s2)c(=O)n(-c2cncc4cn[nH]c24)c(=O)n3CCC#N)c(Cl)cc1F` [Example 1047], the IC50 in assay [1] (setting [3]) was found to be 5.53 nM. In addition, in assay [2] (setting [4]), the 50% effective concentration (EC50) came to 12.4 nM.
On to `COc1ccc(Cl)c(-c2cc3[nH]c(=O)n(-c4cncc5sc(C(N)=O)c(C)c45)c(=O)c3s2)c1` [Example 1048, 4-(6-(2-chloro-5-methoxyphenyl)-2,4-dioxo-1,4-dihydrothieno[3,2-d]pyrimidin-3(2H)-yl)-3-methylthieno[2,3-c]pyridine-2-carboxamide], for which the half-maximal inhibitory concentration (IC50) in assay [1] (setting [3]) was 5.23 nM. The EC50 in assay [2] (setting [5]) turned out to be 9.86 nM.
In the case of `COc1cc(-c2cc3[nH]c(=O)n(-c4cncc5sc(C(N)=O)c(C)c45)c(=O)c3s2)c(Cl)cc1F` [Example 1049], the IC50 in assay [1] (setting [3]) is 3.16 nM. In addition, the EC50 in assay [2] (setting [4]) is 40.9 nM.

The values are drawn from patent US20240116946A1 (Gilead Sciences, Inc., priority 2022, published 2024).
